Test results taken from patent US20200308165A1, “Compounds as Ras Inhibitors and Use Thereof” (D.E. Shaw Research, LLC, priority 2017, published 2020).

Experiments:
Ras protein [1] = target: T1, Ras protein (Homo sapiens, UniProt P01116); experiment: GDPx_Icagen_IC50: SOS1-mediated guanine nucleotide exchange rate of Ras (mant-GDP); assay type: biochemical; details: SOS1-initiated exchange
Excerpt: (§1) In some embodiments, the IC50 assay measures the reduction effect of a given compound on the guanine nucleotide-echange rate of Ras protein in the presence of guanine nucleotide exchange protein SOS1, which is a Ras activator. In the assay GDP-loaded Ras was first prepared in a buffer containing the compound at certain concentration and fluorescent guanine nucleotide (mant-GDP (used in Icagene assay) or mant-GTP (used in other IC50 assays). The guanine nucleotide exchange was initiated by the addition of the SOS1 and its rate was reflected in the rate of fluorescence change as a function of time, which was monitored by a reader. The experiment was repeated at different compound concentrations and the IC50 of the compound was defined as the compound concentration at which half of its maximal reduction effect on the guanine nucleotide exchange rate is achieved. In other embodiments, other Ras activator proteins may be used. Non-limiting examples of other Ras activator proteins include RasGRP (Ras guanyl-releasing protein).
Example 17. Evaluation of Biological Activities: GDPx_Icagen_ICso
as §1, with “The IC50” for “In some embodiments, the IC50”, “guanine nucleotide-exchange” for “guanine nucleotide-echange”, “Ras is” for “Ras was”, “nucleotide (mant-GDP).” for “nucleotide (mant-GDP (used in Icagene assay) or mant-GTP (used in other IC50 assays).”, “achieved.” for “achieved. In other embodiments, other Ras activator proteins may be used. Non-limiting examples of other Ras activator proteins include RasGRP (Ras guanyl-releasing protein).”

KRAS4B (wild type) = target: T2, KRAS4B (wild type) (Homo sapiens, UniProt P01116); experiment: K-Ras Nucleotide Exchange Assay-384 (SOS Exchange Assay by Cytoskeleton, GTPx_Cyt_IC50); assay type: biochemical; details: 1 μM KRAS4B, 0.05 μM SOS1, 1.5 μM mant-GDP
T2 construct: purchased Cytoskeleton CS-RS03 (K-Ras4B); CS-SOS1-A (SOS1)
T2 sequence (P01116 1-188 isoform P01116-2): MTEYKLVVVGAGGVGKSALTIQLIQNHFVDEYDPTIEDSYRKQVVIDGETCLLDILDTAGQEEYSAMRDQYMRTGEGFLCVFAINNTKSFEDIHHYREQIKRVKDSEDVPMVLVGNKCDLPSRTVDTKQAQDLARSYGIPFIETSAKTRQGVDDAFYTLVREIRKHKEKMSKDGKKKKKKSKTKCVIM
Protocol: Example 16. Evaluation of Biological Activities: K-Ras Nucleotide Exchange Assay-384 (SOS Exchange Assay by Cytoskeleton (GTPx_Cyt_IC50))
This assay is used to evaluate inhibitors of K-ras, by monitoring the inhibition of nucleotide exchange over time, in the presence of the protein SOS.
384-well black, untreated plates (Corning 3820 with NBS or 3821 untreated) were used. K-Ras4B Protein was used, which is wild-type (Cytoskeleton #CS-RS03) with a concnetration of 5 mg/ml, or 200 μM. Human SOS1 Protein, Exchange Domain 564-1049 (Cytoskeleton # CS-SOS1-A) was used in a concentration of 3.03 mg/ml or 50 μM. Mant-GDP triethylammonium salt solution was purchased from Sigma (catalog No. 69244). 1M stock solution of Hepes was purchased from Sigma (catalog No. H9897). 1M stock solution of MgCl2 was purchased from Sigma (catalog No. M4880). CHAPS, 3% was purchased from Sigma (catalog No. C5070). Nonidet P40 was purchased from Sigma. KOH pellets were purchased from Sigma.
K-ras buffer containing 40 mM Hepes, 10 mM MgCl2, 0.05% CHAPS, 0.01% NP40 with a pH 7.5 was prepared as follows: to a Buffer base containing 4 ml 1M Hepes, 1 ml MgCl2,
93.3 ml d-H2O, pH 7.5 (with KOH pellets), 1.7 ml 3% CHAPS was added, followed by the addition of 1 ml 1% NP40.
Final Conditions of the method included 1 μM KRAS4B (wild type), 0.05 μM SOS1, 1.5 μM mant-GDP. Reagent Preparation included: thawing aliquots of KRAS, SOS, and mant-GDP; preparing 3x KRAS (3 uM) in assay buffer; preparing 3x SOS/mant-GDP (150 nM/4.5 uM) in assay buffer; and preparing 3x compounds in assay buffer.
Assay Procedure (1536) used 3.3 μl, 3x Kras, 3.3 μl 3x compound with preincubate 0 hour, and […] 3x SOS/mant-GDP. A kinetic read measuring fluorescence at 360_450 was performed for 30 min at 30 second intervals.
Reference compound SCH 54292 (reversible inhibitor) at about 100 μM was used with no preincubation. Reagents were only stable for 45 min on ice, and therefore were prepared fresh before each assay. Partial plates (up to 9 columns) were run at a time to minimize effects due to the amount of time it takes to read a whole plate. SOS/mant-GDP were added with an automated pipettor to initiate all reactions at the same time. Assay was typically performed at 0.5% solution in DMSO (compounds prepared in 1.5% DMSO initially).
Clariostar Settings were as follows. Test Name was Kras Kinetic 360-450. Basic settings of the test included Measurement type as Fluorescence (FI), and Microplate name as Corning 3820. Plate mode settings included 61 cycles, 30 second cycle time, and 10 flashes per well. Optic settings were as follows. Excitation wavelength was 360 nm. Emission wavelength was 450 nM. Excitation bandwidth was 12 nm. Emission bandwidth was 12 nm. Dichroic filter 405 was used. D6 Well(s) was used for gain adjustment. No shaking was used. General settings were as follows. Top optic was used. Settling time was 0.1 second. Reading direction was bidirectional, horizontal left to right, and bottom to top. The target temperature was 25° C.

GDP-loaded K-Ras = GDP-loaded K-Ras (Homo sapiens, UniProt P01116); experiment: Thermophoresis binding assay
GDP-loaded K-Ras, sequence (P01116 1-188 isoform P01116-2): as above
Protocol: The thermophoresis binding assay measures the changes in the movement of KRAS along a temperature gradient as a result of compound binding. In this assay, K-Ras is fluorescently labeled and the thermophoretic movement is measured by monitoring the fluorescence distribution inside a capillary. Compounds of varies concentrations were titrated and the fluorescence distribution signal was measured after 30 seconds or until the diffusion equilibrium is stable. The apparent binding affinity Kd is calculated by fitting the normalized fluorescence distribution values along the concentration axis.

Ras protein [2] = target: T1, Ras protein; experiment: Nucleotide exchange rate IC50 assay (SOS1, mant-GDP), Example 18; assay type: biochemical
Excerpt: as §1, with “The IC50” for “In some embodiments, the IC50”, “guanine nucleotide-exchange” for “guanine nucleotide-echange”, “Ras is” for “Ras was”, “nucleotide (mant-GDP).” for “nucleotide (mant-GDP (used in Icagene assay) or mant-GTP (used in other IC50 assays).”, “achieved.” for “achieved. In other embodiments, other Ras activator proteins may be used. Non-limiting examples of other Ras activator proteins include RasGRP (Ras guanyl-releasing protein).”

T1 sequence (P01116 1-188 isoform P01116-2): as above

| IC50 (Ras protein [1]) [nM] | IC50 (KRAS4B (wild type)) [nM] | Kd (GDP-loaded K-Ras) [nM] | IC50 (Ras protein [2]) [nM] | SMILES |
| --- | --- | --- | --- | --- |
| 21000 | 500000 | – | – | Cc1nnc(SCc2cc(=O)n(-c3nc4ccccc4s3)[nH]2)s1 [Compound 187, 2-(benzo[d]thiazol-2-yl)-5-(((5-methyl-1,3,4-thiadiazol-2-yl)thio)methyl)-1,2-dihydro-3H-pyrazol-3-one] |
| – | – | 520 | ~800 | Cc1nnc(SCc2[nH]n(-c3nc4ccccc4[nH]3)c(=O)c2C)s1 [Compound 188, 2-(1H-benzo[d]imidazol-2-yl)-4-methyl-5-(((5-methyl-1,3,4-thiadiazol-2-yl)thio)methyl)-1,2-dihydro-3H-pyrazol-3-one] |
| – | – | 413 | ~700 | COC(=O)c1ccc2[nH]c(-n3[nH]c(CSc4nnc(C)s4)c(C)c3=O)nc2c1 [Compound 189, methyl 2-(4-methyl-3-(((5-methyl-1,3,4-thiadiazol-2-yl)thio)methyl)-5-oxo-2,5-dihydro-1H-pyrazol-1-yl)-1H-benzo[d]imidazole-5-carboxylate] |
